In patent US20120165339A1, “CYCLOPROPANE DERIVATIVES” (EISAI R&D MANAGEMENT CO., LTD., priority 2010, published 2012):
Like-named read-outs stand apart in the source and are kept apart here.

Key:
[1] = biological target: T1, OX1 (Homo sapiens, UniProt O43613); assay: Orexin-receptor binding ability, [125I]-OX-A, CHO cell membranes expressing OX1; parameters: expressed in transfected cells; host or cells: CHO cells (membrane preparation); details: membranes of recombinant CHO cells, 0.2 nM [125I]-OX-A tracer; read-out: OX1 (IC50)
T1 sequence (O43613 1-425): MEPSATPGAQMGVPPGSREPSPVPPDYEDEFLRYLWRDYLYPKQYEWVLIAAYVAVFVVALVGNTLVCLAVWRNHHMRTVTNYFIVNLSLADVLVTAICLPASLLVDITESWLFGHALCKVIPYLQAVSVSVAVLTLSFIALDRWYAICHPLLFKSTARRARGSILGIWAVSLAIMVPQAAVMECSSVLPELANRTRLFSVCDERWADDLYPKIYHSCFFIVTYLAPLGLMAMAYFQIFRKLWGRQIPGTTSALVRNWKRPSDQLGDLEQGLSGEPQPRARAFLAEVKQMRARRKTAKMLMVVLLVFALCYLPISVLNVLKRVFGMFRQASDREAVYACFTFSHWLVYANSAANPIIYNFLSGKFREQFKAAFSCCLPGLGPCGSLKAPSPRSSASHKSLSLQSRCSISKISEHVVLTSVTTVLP
Protocol: (§1) The assay was carried out using a 96-well Wheat Germ Agglutinin Flash Plate (PerkinElmer). The volume in a single assay well was 100 ul, and the composition of the reaction solution was as follows:
(§2) 25 mM HEPES (pH 7.5), 1 mM CaCl2, 4.5 mM MgCl2, 0.5% BSA (bovine serum albumin), 0.1% sodium azide, 0.05% Tween-20, and 0.2% DMSO.
Cell membranes were prepared from recombinant CHO cells that expressed OX2 or OX1. The cell membranes were used in an amount of 5 μg protein/assay. […] Finally, the radioactivity of each well was measured using a scintillation counter (TopCount, PerkinElmer). The obtained results are shown in terms of IC50 values (nM) in the following table.

[2] = biological target: T2, OX2 (Homo sapiens, UniProt O43614); assay: Antagonism PLAP reporter assay, HEK-293 cells expressing human OX2; type: cell-based; parameters: expressed in transfected cells; host or cells: HEK-293 cell line, expression vector pBabeCLIH; details: HEK-293, 1 nM human OX-A; IC50 converted to Ki by Cheng-Prusoff equation
T2 sequence (O43614 1-444): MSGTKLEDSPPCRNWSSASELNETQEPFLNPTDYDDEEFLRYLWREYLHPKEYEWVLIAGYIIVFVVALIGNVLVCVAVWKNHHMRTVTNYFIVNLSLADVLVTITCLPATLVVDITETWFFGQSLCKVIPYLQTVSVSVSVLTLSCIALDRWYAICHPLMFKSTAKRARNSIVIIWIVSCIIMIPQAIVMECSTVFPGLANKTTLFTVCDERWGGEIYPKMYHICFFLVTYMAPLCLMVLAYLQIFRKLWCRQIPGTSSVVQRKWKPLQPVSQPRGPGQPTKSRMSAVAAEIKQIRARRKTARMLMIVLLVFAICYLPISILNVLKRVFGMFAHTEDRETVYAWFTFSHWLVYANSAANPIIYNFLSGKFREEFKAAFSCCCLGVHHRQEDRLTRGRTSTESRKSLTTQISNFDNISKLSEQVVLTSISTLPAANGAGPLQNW
Protocol: (§3) The antagonistic function of the compound of the present invention to prevent the activation of OX2 and OX1 by orexin-A (OX-A), which is a natural peptide agonist, was measured using a cell-based reporter assay. A HEK-293 cell line expressing genetically recombinant human OX2 (accession No. NM_001526.3) or a HEK-293 cell line expressing genetically recombinant human OX1 (accession No. NM_001525.2), which had pBabeCLIH as expression vector, was used. The cells were plated at a density of 10,000 cells/well onto a non-coated 96-well plate in Dulbecco's modified Eagle medium (Sigma Cat No. D6046: 10% v/v heat-inactivated fetal bovine serum was contained). The cells were cultured at 37° C. overnight, so that they could adhere to the plate. On the following day, cells were incubated with a compound of the present invention dissolved in Dulbecco's modified Eagle medium (Sigma Cat No. A8806: 0.1% w/v bovine serum albumin was contained), and added to the cell plate to reach a final concentration of 0.1% dimethyl sulfoxide.
(§4) The thus obtained mixture was incubated at room temperature for 1 hour. Thereafter, human OX-A and forskolin were dissolved in the same medium as described above, which contained fetal bovine serum albumin, and the medium was then added to the cells, resulting in a final concentration of 300 nM forskolin. Subsequently, the cells were cultured at 37° C. for approximately 18 to 24 hours. During the culture, as a result of activation of the orexin receptor and subsequent dose-dependent increase in intracellular calcium concentration, a reporter enzyme, placental alkaline phosphatase (PLAP), was expressed under the control of a CRE x4+VIP promoter in a pBabeCLcre4vPdNN vector and secreted into the culture medium supernatant. On the following day, reporter enzyme activity was detected by mixing 5 ul of the culture medium supernatant with 20 ul of detection buffer (containing 1.34 g/L sodium bicarbonate, 1.27 g/L sodium carbonate and 0.2 g/L magnesium sulfate heptahydrate in water) and 25 ul of Lumi-Phos530 reagent (Wako Pure Chemical Industries Ltd.), followed by incubating the obtained mixture light-protected at room temperature for 2 hours, before performing luminescence measurement (ARVO Reader, PerkinElmer). The Kd value of human OX-A with respect to each receptor was measured by titration from 0 to 300 nM. Then, the IC50 value of the compound of the present invention with respect to the activity of 1 nM human OX-A was converted into a Ki value (nM) using the Cheng-Prusoff equation.

[3] = biological target: T1, OX1; assay: Antagonism PLAP reporter assay, HEK-293 cells expressing human OX1; type: cell-based; parameters: expressed in transfected cells; host or cells: HEK-293 cell line, expression vector pBabeCLIH; details: HEK-293, 1 nM human OX-A; IC50 converted to Ki by Cheng-Prusoff equation
Protocol: as §3, §4

[4] = biological target: T2, OX2; assay: Orexin-receptor binding ability, [125I]-OX-A, CHO cell membranes expressing OX2; parameters: expressed in transfected cells; host or cells: CHO cells (membrane preparation)
Protocol: as §1, §2
Cell membranes were prepared from recombinant CHO cells that expressed OX2 or OX1. The cell membranes were used in an amount of 5 μg protein/assay. Test compound in various concentrations, and 0.2 nM [^125I]-OX-A as tracer were added to the cell membranes, and then allowed to react at room temperature for 30 minutes. After completion of the reaction, the reaction solution as a whole was discarded, and the wells were then washed once with 200 ul of wash buffer (25 mM HEPES (pH 7.5), 1 mM CaCl2, 5 mM MgCl2, 0.5% BSA, 0.1% sodium azide, 0.05% Tween-20, and 525 mM sodium chloride). Finally, the radioactivity of each well was measured using a scintillation counter (TopCount, PerkinElmer). The obtained results are shown in terms of IC50 values (nM) in the following table.

[5] = membranes of recombinant CHO cells, 0.2 nM [125I]-OX-A tracer, read-out: OX2 (IC50)

SMILES | IC50 [1] | Ki [2] | Ki [3] | IC50 [4, 5] | IC50 [4]
COc1ccc(OCC2(c3ccccc3)CC2C(=O)Nc2ccccc2-c2nnc[nH]2)cc1OC (stereo not drawn) [Example 35, N-[2-(1H-1,2,4-triazol-3-yl)phenyl]-2-[(3,4-dimethoxyphenyl)oxymethyl]-2-phenylcyclopropanecarboxamide] | 2.04 µM | 0.122 µM | 1.9 µM | 0.047 µM | –
COc1ccc(OCC2(c3ccccc3)CC2C(=O)Nc2cc(C)ccn2)cc1OC (stereo not drawn) [Example 36, N-(4-methylpyridin-2-yl)-2-[(3,4-dimethoxyphenyl)oxymethyl]-2-phenylcyclopropanecarboxamide] | 0.283 µM | 0.043 µM | 0.699 µM | 0.022 µM | –
COc1ccc(OCC2(c3ccccc3)CC2C(=O)Nc2cccc(C)n2)cc1OC (stereo not drawn) [Example 37, N-(6-methylpyridin-2-yl)-2-[(3,4-dimethoxyphenyl)oxymethyl]-2-phenylcyclopropanecarboxamide] | 0.403 µM | 0.014 µM | 0.593 µM | 0.018 µM | –
COc1ccc(OCC2(c3ccccc3)CC2C(=O)Nc2cc(C)ns2)cc1OC (stereo not drawn) [Example 40, N-(3-methylisothiazol-5-yl)-2-[(3,4-dimethoxyphenyl)oxymethyl]-2-phenylcyclopropanecarboxamide] | 1.05 µM | 0.0515 µM | 0.752 µM | 0.036 µM | –
COc1ccc(OC[C@@]2(c3ccccc3)C[C@H]2C(=O)Nc2ccccn2)cc1OC [Example 41, (1R,2S)—N-(pyridin-2-yl)-2-[(3,4-dimethoxyphenyl)oxymethyl]-2-phenylcyclopropanecarboxamide] | 0.374 µM | 0.0248 µM | 0.297 µM | 0.035 µM | –
CCn1cc(OCC2(c3ccccc3)CC2C(=O)Nc2ccc(Cl)cn2)ccc1=O (stereo not drawn) [Example 54, N-(5-chloropyridin-2-yl)-2-[(1-ethyl-6-oxo-1,6-dihydropyridin-3-yl)oxymethyl]-2-phenylcyclopropanecarboxamide] | 0.061 µM | 0.0008 µM | 0.0375 µM | 0.003 µM | –
CCn1cc(OCC2(c3ccccc3)CC2C(=O)Nc2ccc(C#N)cn2)ccc1=O (stereo not drawn) [Example 55] | 0.675 µM | 0.0436 µM | > 0.467 µM | 0.033 µM | –
CCn1nc(C)cc1OCC1(c2ccccc2)CC1C(=O)Nc1ccc(Cl)cn1 (stereo not drawn) [Example 57] | 0.483 µM | 0.0317 µM | > 0.467 µM | 0.046 µM | –
CCn1nc(C)cc1OCC1(c2ccccc2)CC1C(=O)Nc1ccc(F)cn1 (stereo not drawn) [Example 58] | 0.467 µM | 0.0209 µM | > 0.467 µM | 0.045 µM | –
Cc1noc2cc(OCC3(c4ccccc4)CC3C(=O)Nc3ccc(C#N)cn3)ccc12 (stereo not drawn) [Example 61] | 0.52 µM | 0.0329 µM | 0.275 µM | 0.07 µM | –
Cc1ccc(OCC2(c3ccccc3)CC2C(=O)Nc2ccc(Cl)cn2)c(C)n1 (stereo not drawn) [Example 62] | 0.044 µM | 0.0302 µM | 0.481 µM | 0.061 µM | –
CCn1nc(C)c(Cl)c1OCC1(c2ccccc2)CC1C(=O)Nc1ccc(F)cn1 (stereo not drawn) [Example 74] | 0.359 µM | 0.0307 µM | > 0.467 µM | 0.03 µM | –
CCn1nc(C)c(Cl)c1OCC1(c2ccccc2)CC1C(=O)Nc1ccc(Cl)cn1 (stereo not drawn) [Example 75] | 0.477 µM | 0.0308 µM | > 0.816 µM | 0.026 µM | –
COc1cc(F)c(OCC2(c3ccccc3)CC2C(=O)Nc2ccccn2)cc1OC (stereo not drawn) [Example 78] | 0.212 µM | 0.0192 µM | 0.342 µM | – | 0.02 µM
CCn1cc(OCC2(c3ccccc3)CC2C(=O)Nc2ccc(F)cn2)c(C)n1 (stereo not drawn) [Example 79, N-(5-fluoropyridin-2-yl)-2-[(1-ethyl-3-methyl-1H-pyrazol-4-yl)oxymethyl]-2-phenylcyclopropanecarboxamide] | 0.213 µM | 0.0105 µM | 0.275 µM | 0.054 µM | –
CCn1cc(OCC2(c3ccccc3)CC2C(=O)Nc2ccc(C#N)cn2)cn1 (stereo not drawn) [Example 80] | 0.359 µM | 0.19 µM | > 0.467 µM | 0.054 µM | –
CCn1cc(OCC2(c3ccccc3)CC2C(=O)Nc2ccc(Cl)cn2)cn1 (stereo not drawn) [Example 81] | 0.163 µM | 0.078 µM | > 0.467 µM | 0.033 µM | –
COc1ccc(CCC2(c3ccccc3)CC2C(=O)Nc2ccccn2)cc1OC (stereo not drawn) [Example 99, N-(pyridin-2-yl)-2-[2-(3,4-dimethoxyphenyl)ethyl]-2-phenylcyclopropanecarboxamide] | 0.632 µM | 0.154 µM | > 0.816 µM | 0.043 µM | –
CCc1nc(C)c(CC[C@@]2(c3ccccc3)C[C@H]2C(=O)Nc2ccc(C#N)cn2)s1 [Example 100, (1R,2R)—N-(5-cyanopyridin-2-yl)-2-[2-(2-ethyl-4-methyl-1,3-thiazol-5-yl)ethyl]-2-phenylcyclopropanecarboxamide] | 0.058 µM | 0.0052 µM | 0.0475 µM | 0.009 µM | –
CCc1nc(Cl)cn1CCC1(c2ccccc2)CC1C(=O)Nc1ccc(F)cn1 (stereo not drawn) [Example 113] | 0.944 µM | 0.0627 µM | > 0.467 µM | 0.049 µM | –
CCc1nc(Cl)cn1CCC1(c2ccccc2)CC1C(=O)Nc1ccc(C#N)cn1 (stereo not drawn) [Example 114] | 0.868 µM | 0.21 µM | > 0.467 µM | 0.049 µM | –
